The test system of this assay is Cryptosporidium parvum. Briefly: MMV: Cryptosporidium parvum oocysts (Iowa Strain) were prepared for use by treatment with 10 mM HCl (37 degrees C, 10 min) followed by 2 mM sodium taurocholate in phosphate-buffered saline (PBS) with Ca2+ and Mg2+ (16 degrees C, 10 min) in order to stimulate excystation. The high-throughput screen was carried out by inoculating >90% confluent human ileocecal adenocarcinoma (HCT-8) cells (ATCC) with ~5.5 x 10^3 primed oocysts per well. Experimental compounds or DMSO (vehicle) were added three hours after infection, and cells were incubated for 48 hours. Format: functional.

Consider `O=C(Nc1ccc(F)c(Cl)c1)Nc1ccc(Cl)c(Cl)c1`, for which the Inhibition (usually the drop in the measured response relative to a control, in per cent) was 36.98%.

In the case of `CCCCCCOC(=O)C1=C(C)NC(=O)NC1c1ccccc1F` (configuration not stated), the Inhibition is -26.01%.

Turning to `CCC(C)NCC(O)(c1ccc(Cl)cc1)c1ccc(Cl)cc1` (configuration not stated), the Inhibition is listed as -5.937%.

For the compound `CCOc1cccc(C(=O)Nc2ccc(-c3nc4ccccc4[nH]3)cc2)c1`, the Inhibition is on record as -2.618%.

`Cc1cccc(Nc2nc(N)c3ccccc3n2)c1.Cl`: the Inhibition is on record as 39.08%.

Take `O=C(NC1CCN(Cc2ccccc2)CC1)c1cc2nc(-c3ccc(Cl)s3)cc(C(F)(F)F)n2n1`: the Inhibition was -21.67%.

On to `Cc1cc(Nc2ccc(C)c(Cl)c2)n2nc(C(F)(F)F)nc2n1`, for which the Inhibition is on record as 4.308%.

As for `c1ccc(CNc2nc(Nc3ccccc3)nc3ccccc23)cc1`, the Inhibition is recorded as 87.13%.

For the compound `Cc1cc(Nc2cccc(F)c2)nc(NCc2ccccc2)n1`, the Inhibition is -34.09%.

In the case of `COc1ccccc1N1C(=N)SC(=Cc2ccc(OCc3ccccc3F)cc2)C1=O`, the Inhibition was -8.054%.

On to `CCOc1ccc2nc(C)cc(Nc3ccc(Br)cc3)c2c1`, for which the Inhibition was -4.208%.

In the case of `Oc1ccc2ccccc2c1CNc1nc2ccccc2[nH]1`, the Inhibition was -48.76%.

On to `Cc1ccc2cc3c(N)c4c(C)ccc(C)c4nc3nc2c1`, for which the Inhibition is -22.09%.

Take `COc1cccc(-c2nn(C)c3sc(C(=O)NCCN4CCN(c5ccccc5F)CC4)cc23)c1`: the Inhibition came to 60.49%.

Consider `O=C(O)C(=O)O.Oc1ccccc1CN1CCN(C(c2ccccc2)c2ccccc2)CC1`, for which the Inhibition is -3.109%.

Turning to `CCOc1ccc(/C=C/c2nc(=O)c3ccccc3o2)cc1`, the Inhibition was -0.2946%.

Take `CCOc1ccccc1CN1CCc2nc3cc(C(C)(C)C)nn3c(O)c2C1`: the Inhibition is listed as -3.69%.

As for `Cc1ccc(CN2CCC(C(=O)Nc3ccc(-c4cc5ccccc5[nH]4)cc3)CC2)o1`, the Inhibition was 45.39%.

Consider `CC(C)(C)c1ccc(O)c(CNC2CCCCC2)c1`, for which the Inhibition is listed as -70.4%.

Consider `C=CCc1c(C)nc2ccccc2c1O`, for which the Inhibition was -10.8%.

Turning to `O=C(Nc1cccc(C2=NCCN2)c1)Nc1cccc(C2=NCCN2)c1` [IMIDOCARB], the Inhibition stood at 9.453%.

`Cc1sc(NC(=O)c2ccccc2)c(C(c2cccs2)N2CCN(c3ccccc3)CC2)c1C` (configuration not stated): the Inhibition is reported as -51.35%.

In the case of `COc1cc(C(=O)ON=C(N)Cc2cccc3ccccc23)cc(OC)c1OC`, the Inhibition amounted to 26.07%.

For the compound `c1ccc(-c2ccc(-c3nc4ccccc4[nH]3)cc2)cc1`, the Inhibition is 27.1%.

On to `Cc1cccc(-n2ncc3c(O)nc(-n4nc(C)cc4NC(=O)c4cc5ccccc5o4)nc32)c1`, for which the Inhibition was determined as 82.48%.

Consider `CCOC(=O)c1cnc2ccc(OC)cc2c1NCc1ccccc1`, for which the Inhibition is reported as 13.76%.

Turning to `CCOC(=O)c1c(C)n(-c2ccc(Cl)cc2)c2ccc(OC(=O)C=Cc3ccccc3)cc12`, the Inhibition is reported as -77.36%.

On to `Cc1ccc(Nc2nc(N)c3ccccc3n2)cc1Cl`, for which the Inhibition is recorded as 40.42%.

For `COc1ccc2nc(C)cc(Nc3cccc(O)c3)c2c1.Cl`, the Inhibition is recorded as -14.76%.

For the compound `OC1=C2C(=Nc3ccccc3SC2c2ccccc2)c2ccccc21` (configuration not stated), the Inhibition is reported as -46.02%.

Regarding `COc1ccc2nc(C)cc(Nc3ccc(Cl)cc3)c2c1`, the Inhibition is given as -41.72%.

Take `Cc1ccc(F)cc1NC(=O)c1cc(Cl)ccc1Nc1ccccc1`: the Inhibition is -36.44%.

Take `Cc1ccc(N2C3c4ccccc4N(S(=O)(=O)c4ccc(C)cc4)C2c2ccccc2N3S(=O)(=O)c2ccc(C)cc2)cc1`: the Inhibition is -51.15%.

In the case of `FC(F)(F)c1cccc(CNC2CCN(CCc3ccccc3)CC2)c1`, the Inhibition is -52.87%.

Regarding `CC(C)(C)c1ccc(C(=O)Nc2nc3ccccc3s2)cc1`, the Inhibition is recorded as 63.38%.

In the case of `CCCCNCC(O)(c1ccc(Cl)cc1)c1ccc(Cl)cc1`, the Inhibition is recorded as 9.548%.

As to `CCN(CC)CCCNc1ccnc2cc3ccccc3cc12`, the Inhibition is recorded as -47.31%.

The values are drawn from ChEMBL document CHEMBL3137356, “MMV Box Cryptosporidium parvum screening set”.
